# Measurements taken from ChEMBL document CHEMBL1201862, “PubChem BioAssay data set” (2004).
# Activity calls are given as the source filed them.
# Legend:
# [1] = biological target: T1, Eukaryotic translation initiation factor 2-alpha kinase 3 (Homo sapiens, UniProt Q9NZJ5); experiment: Dose response cell-based high-throughput screening assay to measure PERK inhibition. [Related pubchem assays: 1416 ]; format: functional
# T1 sequence (Q9NZJ5 whole entry): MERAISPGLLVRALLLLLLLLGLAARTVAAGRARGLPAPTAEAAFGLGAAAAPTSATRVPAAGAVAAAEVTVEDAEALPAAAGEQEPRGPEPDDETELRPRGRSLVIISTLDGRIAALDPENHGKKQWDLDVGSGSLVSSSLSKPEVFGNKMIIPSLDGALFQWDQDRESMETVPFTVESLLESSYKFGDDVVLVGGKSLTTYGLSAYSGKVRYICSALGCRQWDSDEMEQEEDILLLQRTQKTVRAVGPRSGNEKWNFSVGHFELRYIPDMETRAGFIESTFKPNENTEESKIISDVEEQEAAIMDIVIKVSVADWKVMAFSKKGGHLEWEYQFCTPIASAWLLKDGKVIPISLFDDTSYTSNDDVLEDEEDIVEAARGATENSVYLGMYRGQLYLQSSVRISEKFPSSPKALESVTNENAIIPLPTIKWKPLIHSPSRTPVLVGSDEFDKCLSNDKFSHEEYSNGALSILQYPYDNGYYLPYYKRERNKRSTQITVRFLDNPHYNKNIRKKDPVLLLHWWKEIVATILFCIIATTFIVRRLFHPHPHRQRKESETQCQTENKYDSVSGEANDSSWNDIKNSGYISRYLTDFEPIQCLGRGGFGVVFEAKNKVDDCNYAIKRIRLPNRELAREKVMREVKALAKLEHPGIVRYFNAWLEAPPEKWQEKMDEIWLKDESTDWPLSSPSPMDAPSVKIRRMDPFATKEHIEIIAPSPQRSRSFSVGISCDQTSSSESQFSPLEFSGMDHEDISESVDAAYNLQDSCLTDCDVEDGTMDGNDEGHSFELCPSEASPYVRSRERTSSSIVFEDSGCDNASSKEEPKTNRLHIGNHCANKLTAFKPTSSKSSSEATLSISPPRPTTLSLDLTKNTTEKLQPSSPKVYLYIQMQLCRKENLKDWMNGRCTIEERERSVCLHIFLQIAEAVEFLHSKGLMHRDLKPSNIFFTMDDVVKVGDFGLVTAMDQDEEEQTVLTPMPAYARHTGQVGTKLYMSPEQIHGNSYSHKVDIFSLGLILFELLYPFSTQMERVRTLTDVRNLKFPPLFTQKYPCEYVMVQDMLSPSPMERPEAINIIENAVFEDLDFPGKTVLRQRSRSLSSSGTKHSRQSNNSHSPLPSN
# [2] = biological target: T1, Eukaryotic translation initiation factor 2-alpha kinase 3; experiment: Counterscreen assay for PERK inhibitors: Dose response cell-based high throughput screening assay to measure inhibition of PERK at 6 hours. [Related pubchem assays: 1522, 1416 ]; format: functional
# [3] = biological target: Neurotensin receptor type 1 (Homo sapiens, UniProt P30989); format: functional;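 further: Image-based confirmatory dose-response assay measuring agonist activity at NTR1; NTR1-expressing U2OS osteosarcoma cells imaged for beta-arrestin GFP spot formation; agonist potency where compounds increase beta-arrestin recruitment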
# Chain of Neurotensin receptor type 1 (P30989 whole entry): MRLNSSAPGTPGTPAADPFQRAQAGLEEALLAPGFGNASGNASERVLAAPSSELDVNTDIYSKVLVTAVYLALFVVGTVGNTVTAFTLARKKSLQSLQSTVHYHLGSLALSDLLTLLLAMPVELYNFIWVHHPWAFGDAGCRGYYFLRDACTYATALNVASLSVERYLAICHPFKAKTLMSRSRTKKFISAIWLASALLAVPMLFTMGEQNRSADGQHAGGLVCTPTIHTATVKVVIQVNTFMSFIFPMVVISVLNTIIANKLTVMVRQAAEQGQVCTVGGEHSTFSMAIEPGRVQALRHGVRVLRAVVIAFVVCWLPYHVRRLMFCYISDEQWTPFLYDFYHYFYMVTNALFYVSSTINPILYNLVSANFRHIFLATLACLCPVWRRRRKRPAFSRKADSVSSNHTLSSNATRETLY
# [4] = biological target: T2, Acyl-homoserine lactone acylase PvdQ (Pseudomonas aeruginosa (strain LESB58), UniProt Q9I194); experiment: PvdQ acylase enzyme activity blockers – biochemical, fluorescence, plate reader and imaging, cherry-picks, dose response (AID 493231)
# T2 sequence (Q9I194 whole entry): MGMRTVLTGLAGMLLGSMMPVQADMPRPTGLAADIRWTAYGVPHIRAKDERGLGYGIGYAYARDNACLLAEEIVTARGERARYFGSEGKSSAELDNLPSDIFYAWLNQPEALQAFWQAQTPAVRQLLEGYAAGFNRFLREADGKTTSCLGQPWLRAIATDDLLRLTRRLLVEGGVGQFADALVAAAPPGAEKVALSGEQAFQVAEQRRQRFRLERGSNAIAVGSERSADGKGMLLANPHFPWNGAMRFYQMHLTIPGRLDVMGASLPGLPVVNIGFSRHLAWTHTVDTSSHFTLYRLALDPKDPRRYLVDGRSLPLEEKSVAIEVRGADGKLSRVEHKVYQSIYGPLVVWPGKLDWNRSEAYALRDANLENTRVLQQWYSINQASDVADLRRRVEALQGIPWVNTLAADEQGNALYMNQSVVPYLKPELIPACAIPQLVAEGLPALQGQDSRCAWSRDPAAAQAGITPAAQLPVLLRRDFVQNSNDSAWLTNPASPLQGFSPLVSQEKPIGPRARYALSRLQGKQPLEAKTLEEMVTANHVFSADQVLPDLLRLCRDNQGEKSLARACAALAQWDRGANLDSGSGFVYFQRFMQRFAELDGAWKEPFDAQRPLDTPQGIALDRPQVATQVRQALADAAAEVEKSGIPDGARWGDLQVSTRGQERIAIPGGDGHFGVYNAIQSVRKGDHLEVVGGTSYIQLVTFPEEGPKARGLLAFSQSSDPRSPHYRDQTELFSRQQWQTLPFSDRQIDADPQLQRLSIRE
# Bcl-2-related protein A1 = biological target: T3, Bcl-2-related protein A1 (Mus musculus, UniProt Q07440); format: functional;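 further: confirmatory dose–response counterscreen on Bfl-1, used to check hits from a UBC13 polyubiquitin inhibitor campaign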
# T3 sequence (Q07440 whole entry): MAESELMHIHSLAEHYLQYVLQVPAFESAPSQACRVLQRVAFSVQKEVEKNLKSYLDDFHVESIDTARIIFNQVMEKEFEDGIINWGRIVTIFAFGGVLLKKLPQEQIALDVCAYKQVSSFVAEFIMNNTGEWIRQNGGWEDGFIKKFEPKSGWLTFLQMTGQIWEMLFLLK
# [5] = biological target: T4, Ubiquitin-conjugating enzyme E2 N (Homo sapiens, UniProt P61088); format: functional
# T4 sequence (P61088 whole entry): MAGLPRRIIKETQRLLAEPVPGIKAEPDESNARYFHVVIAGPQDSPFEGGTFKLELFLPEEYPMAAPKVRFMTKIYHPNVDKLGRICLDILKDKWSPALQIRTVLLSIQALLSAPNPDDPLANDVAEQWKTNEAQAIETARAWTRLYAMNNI
# [6] = biological target: T4, Ubiquitin-conjugating enzyme E2 N; format: functional; remark: listed apart in the source
# [7] = biological target: T5, Voltage-gated N-type calcium channel alpha-1B subunit/Amyloid beta A4 precursor protein-binding family A member 1 (Homo sapiens, UniProt Q00975+Q02410); format: protein assay
# T5 sequence (Q00975 whole entry): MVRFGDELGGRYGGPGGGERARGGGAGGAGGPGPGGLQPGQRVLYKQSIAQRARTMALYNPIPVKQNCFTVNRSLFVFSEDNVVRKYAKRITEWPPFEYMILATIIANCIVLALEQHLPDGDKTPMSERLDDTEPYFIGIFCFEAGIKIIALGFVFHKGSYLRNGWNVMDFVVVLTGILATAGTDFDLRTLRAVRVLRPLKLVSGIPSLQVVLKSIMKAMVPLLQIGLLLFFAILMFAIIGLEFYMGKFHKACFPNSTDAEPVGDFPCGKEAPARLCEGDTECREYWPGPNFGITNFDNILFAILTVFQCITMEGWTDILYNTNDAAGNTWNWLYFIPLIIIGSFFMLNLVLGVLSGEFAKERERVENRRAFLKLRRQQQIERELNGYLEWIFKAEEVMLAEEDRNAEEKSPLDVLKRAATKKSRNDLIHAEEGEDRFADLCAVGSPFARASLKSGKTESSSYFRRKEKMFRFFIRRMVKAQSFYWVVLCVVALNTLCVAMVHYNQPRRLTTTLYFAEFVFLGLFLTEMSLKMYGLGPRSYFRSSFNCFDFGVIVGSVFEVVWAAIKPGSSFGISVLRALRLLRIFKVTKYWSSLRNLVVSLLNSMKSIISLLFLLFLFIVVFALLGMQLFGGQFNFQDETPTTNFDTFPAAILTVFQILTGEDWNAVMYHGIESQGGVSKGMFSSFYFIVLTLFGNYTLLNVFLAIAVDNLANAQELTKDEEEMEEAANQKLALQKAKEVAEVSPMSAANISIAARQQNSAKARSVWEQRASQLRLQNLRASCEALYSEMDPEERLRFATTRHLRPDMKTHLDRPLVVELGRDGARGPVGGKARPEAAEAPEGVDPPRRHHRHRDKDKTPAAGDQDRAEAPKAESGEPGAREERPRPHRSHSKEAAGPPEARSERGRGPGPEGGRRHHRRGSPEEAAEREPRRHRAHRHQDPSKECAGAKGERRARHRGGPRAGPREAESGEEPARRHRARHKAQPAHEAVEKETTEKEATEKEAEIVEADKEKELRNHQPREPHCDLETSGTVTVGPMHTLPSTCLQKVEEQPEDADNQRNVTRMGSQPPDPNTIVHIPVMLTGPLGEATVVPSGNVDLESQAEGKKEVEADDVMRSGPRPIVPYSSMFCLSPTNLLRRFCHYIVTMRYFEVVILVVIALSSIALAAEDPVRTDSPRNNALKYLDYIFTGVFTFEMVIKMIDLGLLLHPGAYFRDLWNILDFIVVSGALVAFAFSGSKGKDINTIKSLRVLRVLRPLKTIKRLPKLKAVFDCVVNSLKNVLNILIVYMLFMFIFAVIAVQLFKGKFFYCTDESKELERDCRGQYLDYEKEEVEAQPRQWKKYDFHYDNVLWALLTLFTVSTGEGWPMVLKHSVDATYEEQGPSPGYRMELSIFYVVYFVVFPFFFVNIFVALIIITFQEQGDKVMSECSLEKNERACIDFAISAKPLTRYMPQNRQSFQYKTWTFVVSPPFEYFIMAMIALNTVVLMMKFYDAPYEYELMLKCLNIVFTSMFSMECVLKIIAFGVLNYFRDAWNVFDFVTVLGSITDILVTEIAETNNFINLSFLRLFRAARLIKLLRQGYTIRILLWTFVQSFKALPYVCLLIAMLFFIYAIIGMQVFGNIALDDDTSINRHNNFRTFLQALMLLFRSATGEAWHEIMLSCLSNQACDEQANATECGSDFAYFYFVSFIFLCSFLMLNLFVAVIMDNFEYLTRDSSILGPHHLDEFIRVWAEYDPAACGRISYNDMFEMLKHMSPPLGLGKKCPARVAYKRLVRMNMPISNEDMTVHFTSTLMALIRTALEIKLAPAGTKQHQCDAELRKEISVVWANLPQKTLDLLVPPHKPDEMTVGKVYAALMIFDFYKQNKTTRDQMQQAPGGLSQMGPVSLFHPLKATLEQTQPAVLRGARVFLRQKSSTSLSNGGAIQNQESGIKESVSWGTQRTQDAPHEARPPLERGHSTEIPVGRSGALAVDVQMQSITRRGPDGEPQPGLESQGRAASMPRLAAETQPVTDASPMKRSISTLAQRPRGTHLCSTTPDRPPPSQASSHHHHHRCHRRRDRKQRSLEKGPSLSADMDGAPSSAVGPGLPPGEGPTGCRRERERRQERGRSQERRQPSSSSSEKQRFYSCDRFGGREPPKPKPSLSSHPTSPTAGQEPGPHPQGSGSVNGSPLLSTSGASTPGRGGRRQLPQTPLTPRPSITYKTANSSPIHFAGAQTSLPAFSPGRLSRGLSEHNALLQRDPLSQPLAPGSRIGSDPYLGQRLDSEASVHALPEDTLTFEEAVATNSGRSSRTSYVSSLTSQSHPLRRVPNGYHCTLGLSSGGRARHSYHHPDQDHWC
# T5 sequence (Q02410 whole entry): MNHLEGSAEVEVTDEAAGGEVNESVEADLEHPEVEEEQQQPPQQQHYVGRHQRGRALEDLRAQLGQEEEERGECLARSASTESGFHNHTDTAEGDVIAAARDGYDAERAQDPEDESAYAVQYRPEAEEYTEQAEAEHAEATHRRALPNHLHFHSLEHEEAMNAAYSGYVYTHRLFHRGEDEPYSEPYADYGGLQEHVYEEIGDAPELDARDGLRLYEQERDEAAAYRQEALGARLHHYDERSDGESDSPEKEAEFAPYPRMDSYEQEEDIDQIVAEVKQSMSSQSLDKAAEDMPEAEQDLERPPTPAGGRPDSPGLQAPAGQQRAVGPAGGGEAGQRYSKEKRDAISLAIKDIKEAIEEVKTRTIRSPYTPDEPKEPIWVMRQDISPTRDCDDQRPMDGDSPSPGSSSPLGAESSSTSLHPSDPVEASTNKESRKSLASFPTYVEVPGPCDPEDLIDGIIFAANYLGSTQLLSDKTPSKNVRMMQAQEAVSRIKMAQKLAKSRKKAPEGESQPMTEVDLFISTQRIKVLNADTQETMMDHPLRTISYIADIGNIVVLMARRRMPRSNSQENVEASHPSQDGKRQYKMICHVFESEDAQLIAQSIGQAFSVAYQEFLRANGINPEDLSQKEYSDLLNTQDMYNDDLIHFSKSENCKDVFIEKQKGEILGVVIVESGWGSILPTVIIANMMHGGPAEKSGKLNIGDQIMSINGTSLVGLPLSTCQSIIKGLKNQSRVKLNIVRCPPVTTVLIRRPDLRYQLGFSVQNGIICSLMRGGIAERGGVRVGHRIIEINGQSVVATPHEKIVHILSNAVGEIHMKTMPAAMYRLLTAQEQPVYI
# [8] = biological target: T5, Voltage-gated N-type calcium channel alpha-1B subunit/Amyloid beta A4 precursor protein-binding family A member 1; format: protein assay; remark: listed apart in the source
# [9] = biological target: Induced myeloid leukemia cell differentiation protein Mcl-1 (Homo sapiens, UniProt Q07820); format: functional
# Chain of Induced myeloid leukemia cell differentiation protein Mcl-1 (Q07820 whole entry): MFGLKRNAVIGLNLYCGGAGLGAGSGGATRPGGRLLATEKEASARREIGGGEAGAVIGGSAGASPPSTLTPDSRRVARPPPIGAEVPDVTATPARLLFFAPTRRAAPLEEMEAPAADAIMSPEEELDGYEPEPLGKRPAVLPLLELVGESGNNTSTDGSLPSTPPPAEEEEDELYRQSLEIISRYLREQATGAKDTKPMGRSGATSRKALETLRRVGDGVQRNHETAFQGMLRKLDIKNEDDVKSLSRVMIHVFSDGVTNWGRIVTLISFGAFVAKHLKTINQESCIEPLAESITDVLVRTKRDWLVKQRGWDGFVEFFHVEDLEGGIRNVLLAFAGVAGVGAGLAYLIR
# [10] = biological target: Eukaryotic translation initiation factor 4E (Mus musculus, UniProt P63073); experiment: blockers of eIF4G binding by eIF4E – biochemical, TR-FRET, dose response (AID 855); format: functional;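 further: potency for disrupting eIF4E binding to eIF4GI seen as loss of FRET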
# Chain of Eukaryotic translation initiation factor 4E (P63073 whole entry, the tested form may be a part): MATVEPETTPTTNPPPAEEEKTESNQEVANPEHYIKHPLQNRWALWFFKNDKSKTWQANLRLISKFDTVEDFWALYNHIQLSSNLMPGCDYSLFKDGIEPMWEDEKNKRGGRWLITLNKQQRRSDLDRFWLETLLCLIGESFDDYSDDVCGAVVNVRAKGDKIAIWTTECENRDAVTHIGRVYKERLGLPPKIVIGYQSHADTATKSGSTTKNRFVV
# [11] = biological target: T6, Carboxy-terminal domain RNA polymerase II polypeptide A small phosphatase 1 (Homo sapiens, UniProt Q9GZU7); experiment: CTDSP1 inhibitors, concentration-response, biochemical, absorbance readout, ultra-high-throughput screen actives (AID 540297); format: functional
# T6 sequence (Q9GZU7 whole entry): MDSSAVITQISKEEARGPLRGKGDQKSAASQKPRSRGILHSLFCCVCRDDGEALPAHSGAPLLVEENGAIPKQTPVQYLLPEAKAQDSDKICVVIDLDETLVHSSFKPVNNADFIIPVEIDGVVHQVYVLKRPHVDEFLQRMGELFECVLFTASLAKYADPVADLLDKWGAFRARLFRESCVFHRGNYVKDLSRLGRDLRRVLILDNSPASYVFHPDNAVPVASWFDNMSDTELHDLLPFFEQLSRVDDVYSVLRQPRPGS
# [12] = A cytotoxicity screen of small molecule inhibitors of the PhoP region in Salmonella typhi identified in the primary screen. [Related pubchem assays: 1850, 1864, 1985 ]; format: functional
# Cytochrome P450 2C19 = Cytochrome P450 2C19 (Homo sapiens, UniProt P33261); experiment: Cytochrome panel assay with activity outcomes. Panel member name: p450-cyp2c19 Compounds with AC50 equal or less than 10 uM are considered active; format: functional
# Chain of Cytochrome P450 2C19 (P33261 whole entry): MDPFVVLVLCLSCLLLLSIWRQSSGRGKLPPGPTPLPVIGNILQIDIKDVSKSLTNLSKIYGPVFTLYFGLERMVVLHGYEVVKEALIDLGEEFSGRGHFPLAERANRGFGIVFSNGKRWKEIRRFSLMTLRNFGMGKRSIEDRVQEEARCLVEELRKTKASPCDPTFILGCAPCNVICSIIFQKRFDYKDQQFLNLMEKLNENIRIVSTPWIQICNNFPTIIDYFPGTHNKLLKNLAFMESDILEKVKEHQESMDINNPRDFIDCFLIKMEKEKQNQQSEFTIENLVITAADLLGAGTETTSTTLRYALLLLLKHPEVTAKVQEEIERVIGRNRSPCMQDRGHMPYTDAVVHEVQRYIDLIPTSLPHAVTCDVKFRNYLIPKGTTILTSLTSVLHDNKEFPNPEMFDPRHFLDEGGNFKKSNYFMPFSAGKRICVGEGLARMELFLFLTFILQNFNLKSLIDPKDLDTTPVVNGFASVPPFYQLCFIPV
# [13] = biological target: T7, Replicative DNA helicase DnaB (Mycobacterium tuberculosis, UniProt P9WMR3); experiment: DnaB intein splicing inhibitors, dose response, biochemical, cell-free fluorescence (AID 449749); format: functional
# T7 sequence (P9WMR3 whole entry): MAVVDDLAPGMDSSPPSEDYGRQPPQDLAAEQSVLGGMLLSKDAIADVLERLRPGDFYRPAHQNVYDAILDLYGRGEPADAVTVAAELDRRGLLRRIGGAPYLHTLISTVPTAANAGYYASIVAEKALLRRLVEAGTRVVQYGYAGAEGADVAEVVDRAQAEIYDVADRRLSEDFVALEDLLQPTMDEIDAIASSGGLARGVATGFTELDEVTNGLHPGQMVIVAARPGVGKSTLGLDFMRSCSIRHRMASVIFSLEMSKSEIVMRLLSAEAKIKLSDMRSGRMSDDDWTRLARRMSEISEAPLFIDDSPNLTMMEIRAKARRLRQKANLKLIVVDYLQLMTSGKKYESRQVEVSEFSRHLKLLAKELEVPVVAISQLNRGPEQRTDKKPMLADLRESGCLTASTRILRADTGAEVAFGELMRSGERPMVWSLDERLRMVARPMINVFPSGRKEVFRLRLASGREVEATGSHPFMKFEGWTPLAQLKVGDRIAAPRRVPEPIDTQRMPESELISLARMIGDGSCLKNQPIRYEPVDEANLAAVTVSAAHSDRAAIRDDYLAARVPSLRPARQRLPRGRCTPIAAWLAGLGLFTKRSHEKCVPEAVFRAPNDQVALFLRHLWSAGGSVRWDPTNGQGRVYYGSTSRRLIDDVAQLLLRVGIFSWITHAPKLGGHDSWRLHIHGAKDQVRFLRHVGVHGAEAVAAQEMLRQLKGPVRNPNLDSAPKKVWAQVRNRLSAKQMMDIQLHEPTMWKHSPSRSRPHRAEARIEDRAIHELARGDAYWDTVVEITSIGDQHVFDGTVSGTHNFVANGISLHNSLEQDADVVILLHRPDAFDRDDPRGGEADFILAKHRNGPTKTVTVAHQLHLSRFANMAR
# Protein RecA = biological target: T8, Protein RecA (Mycobacterium tuberculosis, UniProt P9WHJ3); experiment: Fluorescence Cell-Free Homogeneous Dose Retest to Identify Inhibitors of RecA-Intein Splicing Activity. [Related pubchem assays (depositor defined):AID2097, AID2223, AID489010, AID492950]; format: functional
# T8 sequence (P9WHJ3 whole entry): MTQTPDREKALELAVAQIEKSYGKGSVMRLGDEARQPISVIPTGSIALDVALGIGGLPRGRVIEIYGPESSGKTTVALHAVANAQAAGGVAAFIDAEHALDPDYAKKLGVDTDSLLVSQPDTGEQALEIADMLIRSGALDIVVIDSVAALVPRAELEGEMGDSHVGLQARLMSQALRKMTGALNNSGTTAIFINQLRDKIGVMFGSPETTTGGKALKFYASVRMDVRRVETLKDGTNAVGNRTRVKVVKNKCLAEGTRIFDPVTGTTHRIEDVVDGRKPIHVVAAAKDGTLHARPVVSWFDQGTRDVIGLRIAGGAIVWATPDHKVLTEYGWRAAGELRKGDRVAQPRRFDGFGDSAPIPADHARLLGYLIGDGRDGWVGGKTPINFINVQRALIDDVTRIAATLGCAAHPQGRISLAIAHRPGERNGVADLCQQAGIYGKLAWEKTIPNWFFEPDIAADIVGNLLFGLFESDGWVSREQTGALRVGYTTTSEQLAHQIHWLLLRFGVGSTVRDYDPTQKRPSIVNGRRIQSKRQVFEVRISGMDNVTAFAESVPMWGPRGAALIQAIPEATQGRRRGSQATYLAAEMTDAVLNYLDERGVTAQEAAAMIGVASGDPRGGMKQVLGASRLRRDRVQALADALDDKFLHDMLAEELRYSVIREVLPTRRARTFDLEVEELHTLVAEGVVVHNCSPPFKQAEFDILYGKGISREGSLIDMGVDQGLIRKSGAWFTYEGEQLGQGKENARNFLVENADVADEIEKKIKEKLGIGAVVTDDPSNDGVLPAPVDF
# Genome polyprotein = Genome polyprotein (dengue virus type 2, UniProt P29990); experiment: flavivirus cap methylation enzyme inhibition – biochemical, confirmation dose response, primary screen (AID 588689); format: functional
# [14] = biological target: DNA dC->dU-editing enzyme APOBEC-3G (Homo sapiens, UniProt Q9HC16); experiment: Dose Response confirmation of small molecule APOBEC3G DNA Deaminase Inhibitors via a fluorescence-based single-stranded DNA deaminase assay. [Related pubchem assays (depositor defined):AID493012, AID493028]; format: functional
# Chain of DNA dC->dU-editing enzyme APOBEC-3G (Q9HC16 whole entry): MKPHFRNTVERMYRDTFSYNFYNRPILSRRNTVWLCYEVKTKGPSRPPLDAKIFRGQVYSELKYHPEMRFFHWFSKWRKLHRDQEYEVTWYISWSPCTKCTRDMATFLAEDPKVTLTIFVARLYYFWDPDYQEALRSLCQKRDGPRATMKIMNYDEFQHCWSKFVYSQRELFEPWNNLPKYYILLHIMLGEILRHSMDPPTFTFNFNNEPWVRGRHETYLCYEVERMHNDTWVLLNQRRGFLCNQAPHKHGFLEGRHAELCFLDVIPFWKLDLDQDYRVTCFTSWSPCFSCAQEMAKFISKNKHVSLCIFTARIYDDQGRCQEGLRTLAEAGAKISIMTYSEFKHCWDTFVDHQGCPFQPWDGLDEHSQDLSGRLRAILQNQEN
compound,measurement,setting,value
O=C(NC(=S)Nc1ccc2oc(=O)ccc2c1)c1ccccc1F,EC50,[1],> 55.7 µM (not active)
same,EC50,[2],> 55.7 µM (not active)
COc1cc2c(cc1OC)C(SC)=NC(C)(C)C2,EC50,[3],9.39 µM (active)
Cc1cc(NC(=O)c2cc([N+](=O)[O-])cc([N+](=O)[O-])c2C)no1,AC50,[4],3.11 µM (active)
Cc1ccc(S(=O)(=O)NCCC(C)C)cc1[N+](=O)[O-],AC50,[4],12.5 µM (active)
N#CN(Cc1ccccc1)Cc1ccccc1,AC50,[4],1.6 µM (active)
CCOc1ccc(-c2nc(S(=O)(=O)c3ccccc3)c(NC)o2)cc1,IC50,Bcl-2-related protein A1,> 20 µM (inactive)
same,IC50,[5],19 µM (active)
same,IC50,[6],> 20 µM (inactive)
NC1=NC(=Nc2cccc(S(N)(=O)=O)c2)c2ccccc21,EC50,[1],> 55.7 µM (not active)
same,EC50,[2],> 55.7 µM (not active)
CC(C)N(C(=O)/C=C/c1cccc([N+](=O)[O-])c1)C(C)C,EC50,[1],> 55.7 µM (not active)
same,EC50,[2],> 55.7 µM (not active)
CC(=O)c1ccc(NC(=O)CSc2ccsc2[N+](=O)[O-])cc1,IC50,[7],6 µM (active)
same,IC50,[8],48.2 µM (active)
same,IC50,[9],< 0.4 µM (not active)
same,IC50,[10],50 µM (inactive)
same,IC50,[11],3.83 µM (active)
COc1cccc(C(c2c(C)[nH]n(-c3ccccc3)c2=O)c2c(C)[nH]n(-c3ccccc3)c2=O)c1O,EC50,[12],> 50 µM (active)
same,AC50,Cytochrome P450 2C19,inconclusive
same,AC50,[13],1.18 µM (active)
same,EC50,Protein RecA,0.829 µM (active)
same,IC50,Genome polyprotein,38.8 µM (active)
Sc1nnc(-c2ccco2)n1/N=C/c1ccccn1,IC50,[14],9.12 µM (active)
